Reference: ChEMBL document CHEMBL1201862, “PubChem BioAssay data set” (2004)
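Results reflect a 48-hour exposure of cells in 96-well plates to compound at five concentrations. GI50 = concentration required for 50% inhibition of growth.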 Calls of active or inactive are those of the source. No stated cut-off is given here; in the data, active = GI50 up to about 1.1 µM and inactive = higher.

Legend:
Assay in all cases: NCI-60 cell line screen, 48 h
TK-10 = test system: TK-10
SNB-19 = test system: SNB-19
HCT-15 = test system: HCT-15
IGROV-1 = test system: IGROV-1
SK-MEL-2 = test system: SK-MEL-2
BT-549 = test system: BT-549
PC-3 = test system: PC-3
K562 = test system: K562
UACC-62 = test system: UACC-62
SR = test system: SR
MDA-N = test system: MDA-N
OVCAR-5 = test system: OVCAR-5
M14 = test system: M14
KM12 = test system: KM12
SF-295 = test system: SF-295
OVCAR-3 = test system: OVCAR-3
COLO 205 = test system: COLO 205
NCI-H522 = test system: NCI-H522
T47D = test system: T47D

| Structure (SMILES) | GI50 (TK-10) | GI50 (SNB-19) | GI50 (HCT-15) [µM] | GI50 (IGROV-1) | GI50 (SK-MEL-2) | GI50 (BT-549) | GI50 (PC-3) | GI50 (K562) | GI50 (UACC-62) | GI50 (SR) | GI50 (MDA-N) | GI50 (OVCAR-5) | GI50 (M14) | GI50 (KM12) | GI50 (SF-295) | GI50 (OVCAR-3) | GI50 (COLO 205) | GI50 (NCI-H522) | GI50 (T47D) |
| --- | --- | --- | --- | --- | --- | --- | --- | --- | --- | --- | --- | --- | --- | --- | --- | --- | --- | --- | --- |
| COc1ccc2nc3n(c2c1)C(=O)c1ccccc1-3 | > 100 µM (inactive) | > 100 µM (inactive) | > 100 | > 100 µM (inactive) | > 100 µM (inactive) | > 10 µM (inactive) | > 100 µM (inactive) | > 100 µM (inactive) | > 100 µM (inactive) | > 100 µM (inactive) | > 100 µM (inactive) | > 100 µM (inactive) | > 100 µM (inactive) | > 100 µM (inactive) | > 100 µM (inactive) | > 100 µM (inactive) | > 100 µM (inactive) | > 100 µM (inactive) | – |
| [N-]=[N+]=Nc1c(Cc2ccccc2)c(=O)oc2ccccc12 | 28.2 µM (inactive) | 27.2 µM (inactive) | 31 | 21.5 µM (inactive) | 28.1 µM (inactive) | 24.5 µM (inactive) | 22.9 µM (inactive) | 18.6 µM (inactive) | > 10 µM (inactive) | 33.4 µM (inactive) | – | 61.9 µM (inactive) | 25.5 µM (inactive) | – | 33.4 µM (inactive) | 49.5 µM (inactive) | 36.9 µM (inactive) | – | 56.8 µM (inactive) |
| CC1C(c2ccc3c(c2)OCO3)c2cc3c(cc2OC1N1CCCC1)OCO3 (stereo not given) | 24.9 µM (inactive) | 20.9 µM (inactive) | 30 | 30.3 µM (inactive) | 31.3 µM (inactive) | – | 32.9 µM (inactive) | 24.4 µM (inactive) | 53.6 µM (inactive) | 35.5 µM (inactive) | 16.1 µM (inactive) | 61.4 µM (inactive) | 25.5 µM (inactive) | 37.7 µM (inactive) | 24 µM (inactive) | 25.8 µM (inactive) | 31.6 µM (inactive) | 18 µM (inactive) | 35.4 µM (inactive) |
| Cc1nc(SCC(N)=O)c2sc(=S)n(-c3ccccc3)c2n1 | > 10 µM (inactive) | > 10 µM (inactive) | > 10 | > 10 µM (inactive) | > 10 µM (inactive) | – | > 10 µM (inactive) | > 10 µM (inactive) | > 10 µM (inactive) | > 10 µM (inactive) | > 10 µM (inactive) | > 10 µM (inactive) | > 10 µM (inactive) | > 10 µM (inactive) | > 10 µM (inactive) | > 10 µM (inactive) | > 10 µM (inactive) | > 10 µM (inactive) | > 10 µM (inactive) |
| COCc1nc(N)nc(N2N=C(C)CC2(C)C)n1 | > 100 µM (inactive) | > 100 µM (inactive) | > 100 | > 100 µM (inactive) | > 100 µM (inactive) | > 100 µM (inactive) | > 100 µM (inactive) | > 100 µM (inactive) | > 100 µM (inactive) | > 100 µM (inactive) | – | > 100 µM (inactive) | > 100 µM (inactive) | > 100 µM (inactive) | > 100 µM (inactive) | > 100 µM (inactive) | > 100 µM (inactive) | > 100 µM (inactive) | > 100 µM (inactive) |
| CCOC(=O)C(C)(Cc1ccc(O)cn1)NC(=O)c1ccccc1 (stereo not given) | > 100 µM (inactive) | > 100 µM (inactive) | > 100 | > 100 µM (inactive) | > 100 µM (inactive) | > 100 µM (inactive) | > 100 µM (inactive) | > 100 µM (inactive) | > 100 µM (inactive) | > 100 µM (inactive) | > 100 µM (inactive) | > 100 µM (inactive) | > 100 µM (inactive) | > 100 µM (inactive) | > 100 µM (inactive) | > 100 µM (inactive) | > 100 µM (inactive) | > 100 µM (inactive) | – |
| CCSC(=O)/C=C1\CN(C(=O)OC(C)(C)C)C1C(=O)OC(C)(C)C (stereo not given) | 2.59 µM (inactive) | 12.1 µM (inactive) | 1.52 | 4.28 µM (inactive) | 6.59 µM (inactive) | 10.3 µM (inactive) | 4.94 µM (inactive) | 1.91 µM (inactive) | 3.2 µM (inactive) | 0.684 µM (active) | – | 6.24 µM (inactive) | 1.77 µM (inactive) | 3.38 µM (inactive) | 12.1 µM (inactive) | 2.42 µM (inactive) | 2.02 µM (inactive) | 2.49 µM (inactive) | 4.34 µM (inactive) |
| Cc1cn(C2CC(N/C(=N/C#N)NCC3OC(n4cnc5c(N)ncnc54)CC3O)C(CO)O2)c(=O)[nH]c1=O (stereo not given) | > 100 µM (inactive) | > 100 µM (inactive) | > 100 | > 100 µM (inactive) | > 100 µM (inactive) | – | > 100 µM (inactive) | > 100 µM (inactive) | > 100 µM (inactive) | > 100 µM (inactive) | > 100 µM (inactive) | > 100 µM (inactive) | > 100 µM (inactive) | > 100 µM (inactive) | > 100 µM (inactive) | > 100 µM (inactive) | > 100 µM (inactive) | > 100 µM (inactive) | > 100 µM (inactive) |
| O=C(CSc1nc2ccc(I)cc2c(=O)n1Cc1ccccc1)NN1C(=O)CCC1=O | 84.5 µM (inactive) | 85.3 µM (inactive) | 22.5 | 29.9 µM (inactive) | 47 µM (inactive) | – | 30.1 µM (inactive) | 33.3 µM (inactive) | 55.7 µM (inactive) | 31.9 µM (inactive) | 83.4 µM (inactive) | > 100 µM (inactive) | 79.8 µM (inactive) | 37.2 µM (inactive) | 37.9 µM (inactive) | 23.5 µM (inactive) | 34 µM (inactive) | 20.4 µM (inactive) | 40 µM (inactive) |
| N/C(=N\O)N/N=C/c1ccc2c(c1)OCO2 | 55 µM (inactive) | 62.7 µM (inactive) | 22 | 25 µM (inactive) | 22 µM (inactive) | – | 26.2 µM (inactive) | 18.5 µM (inactive) | 13.5 µM (inactive) | 7.87 µM (inactive) | 36.5 µM (inactive) | 24.7 µM (inactive) | 13.5 µM (inactive) | 7.55 µM (inactive) | 33.9 µM (inactive) | 14.2 µM (inactive) | 4.74 µM (inactive) | 38.5 µM (inactive) | 46 µM (inactive) |
| Oc1c2cc(Cl)cc1COCc1cc(Cl)cc(c1O)COCc1cc(Cl)cc(c1O)COC2 | 46.8 µM (inactive) | 28 µM (inactive) | 36 | 17 µM (inactive) | > 100 µM (inactive) | 31.3 µM (inactive) | > 100 µM (inactive) | 67.5 µM (inactive) | 56.5 µM (inactive) | > 100 µM (inactive) | – | 40.3 µM (inactive) | 18.7 µM (inactive) | 84.3 µM (inactive) | > 100 µM (inactive) | 47.2 µM (inactive) | 89.5 µM (inactive) | – | 15.7 µM (inactive) |
| CNC(=O)OCc1nc(N=[N+]=[N-])n(C)c1COC(=O)NC | 32.2 µM (inactive) | – | 60.4 | > 100 µM (inactive) | 26.7 µM (inactive) | > 10 µM (inactive) | 96.2 µM (inactive) | 46.5 µM (inactive) | – | 21.3 µM (inactive) | 60.4 µM (inactive) | > 100 µM (inactive) | – | 69.8 µM (inactive) | 67.1 µM (inactive) | 39.2 µM (inactive) | 32.8 µM (inactive) | 19.5 µM (inactive) | – |
